{"source": "patent US10000582B2", "about": "“Ethylsulfonated hyaluronic acid biopolymers and methods of use thereof” (The Regents of the University of California, priority 2013, dated 2018)", "system": "platelets (platelet rich plasma)", "test": "Platelet adhesion assay (SEM imaging)", "type": "cell-based", "description": "Platelet adhesion experiments were visualized by scanning electron microscope (SEM) imaging (FIG. 7)."}
{"substance": "heparin", "values": [{"measurement": "platelet aggregation on the material", "result": "no aggregation of platelets"}]}
